In ChEMBL document CHEMBL1151365, “The isolation and identification of several trichothecene mycotoxins from Fusarium heterosporum” (J Nat Prod, 1981):

Key:
Format in all cases: organism-based
Oryctolagus cuniculus = organism: Oryctolagus cuniculus; assay: Dermal toxicity in rabbit skin; conditions: in vivo
Triticum aestivum [1] = assay: (§1) Toxicity in Triticum aestivum assessed as inhibition of coleoptiles growth at 1 mM; conditions: in vivo, 1000 µM
Triticum aestivum [2] = assay: Toxicity in Triticum aestivum assessed as inhibition of coleoptiles growth at 0.1 mM; conditions: in vivo, 100 µM
Triticum aestivum [3] = assay: Toxicity in Triticum aestivum assessed as inhibition of coleoptiles growth at 0.01 mM; conditions: in vivo, 10 µM
[4] = as §1; conditions: Triticum aestivum coleoptiles, read-out: Activity

| SMILES | ED50 (Oryctolagus cuniculus) [µg] | Activity (Triticum aestivum [1]) | Activity (Triticum aestivum [2]) | Activity (Triticum aestivum [3]) | inhibition at 1000 µM [4] [%] |
| --- | --- | --- | --- | --- | --- |
| CC1=C[C@H]2O[C@@H]3[C@H](O)[C@@H](O)[C@](C)([C@@]2(CO)C[C@@H]1O)[C@]31CO1 | > 1.28 | – | – | – | – |
| CC(=O)OC[C@]12C[C@H](OC(=O)CC(C)(C)O)C(C)=C[C@H]1O[C@@H]1[C@H](O)[C@@H](O)[C@@]2(C)[C@]12CO2 | > 1.28 | Toxic | Toxic | Toxic | – |
| CC(=O)OC[C@]12C[C@H](O)C(C)=C[C@H]1O[C@@H]1[C@H](O)[C@@H](O)[C@@]2(C)[C@]12CO2 | > 1.28 | – | – | – | 59 |
| CC1=C[C@H]2O[C@@H]3[C@H](O)[C@@H](O)[C@](C)([C@@]2(CO)C[C@@H]1OC(=O)CC(C)(C)O)[C@]31CO1 | > 1.28 | Toxic | Toxic | Toxic | – |
| CC(=O)OC[C@]12C[C@H](OC(=O)CC(C)C)C(C)=C[C@H]1O[C@@H]1[C@H](O)[C@@H](O)[C@@]2(C)[C@]12CO2 [HT-2 TOXIN] | 0.16 | Toxic | Toxic | Toxic | – |
| CC(=O)OC[C@]12C[C@H](OC(=O)CC(C)C)C(C)=C[C@H]1O[C@@H]1[C@H](O)[C@@H](OC(C)=O)[C@@]2(C)[C@]12CO2 [T-2 TOXIN] | < 0.16 | Toxic | Toxic | Toxic | – |
